Source: PubChem BioAssay (NCI)
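All cell lines were grown in 96-well plates and treated with compound for 48 hours. TGI: concentration producing complete growth inhibition.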

Key:
Test in all cases: NCI-60 cell line screen, 48 h
[1] = tested on: SNB-19 CNS
[2] = tested on: OVCAR-3 ovarian
[3] = tested on: CAKI-1 renal
[4] = tested on: MDA-MB-435
[5] = tested on: HCT-116 colon
[6] = tested on: RXF 393 renal
[7] = tested on: TK-10 renal
[8] = tested on: IGROV1 ovarian
[9] = tested on: A498 renal
[10] = tested on: UO-31 renal
[11] = tested on: COLO 205 colon
[12] = tested on: KM12 colon
[13] = tested on: RPMI-8226 leukemia
[14] = tested on: UACC-62 melanoma
[15] = tested on: HT29 colon
[16] = tested on: NCI/ADR-RES ovarian
[17] = tested on: K-562 leukemia
[18] = tested on: SF-295 CNS
[19] = tested on: NCI-H226 lung
[20] = tested on: MOLT-4 leukemia
[21] = tested on: EKVX NSCLC
[22] = tested on: PC-3 prostate
[23] = tested on: DU-145 prostate
[24] = tested on: NCI-H23 lung
[25] = tested on: SK-MEL-28 melanoma
[26] = tested on: BT-549 breast
[27] = tested on: SF-539 CNS
[28] = tested on: OVCAR-5 ovarian
[29] = tested on: SK-MEL-5 melanoma
[30] = tested on: HL-60(TB) leukemia
[31] = tested on: A549 NSCLC
[32] = tested on: T-47D breast
[33] = tested on: SW-620 colon
[34] = tested on: UACC-257 melanoma
[35] = tested on: CCRF-CEM leukemia
[36] = tested on: U251 CNS
[37] = tested on: SR leukemia
[38] = tested on: HS 578T breast
[39] = tested on: MDA-MB-231 breast
[40] = tested on: SF-268 CNS
[41] = tested on: OVCAR-8 ovarian
[42] = tested on: NCI-H522 lung
[43] = tested on: HOP-92 NSCLC
[44] = tested on: HOP-62 NSCLC
[45] = tested on: MALME-3M melanoma
[46] = tested on: HCC-2998 colon
[47] = tested on: 786-0 renal
[48] = tested on: SK-MEL-2 melanoma
[49] = tested on: SN12C renal
[50] = tested on: SNB-75 CNS
[51] = tested on: MCF7 breast
[52] = tested on: ACHN renal
[53] = tested on: SK-OV-3 ovarian
[54] = tested on: HCT-15 colon
[55] = tested on: OVCAR-4 ovarian
[56] = tested on: LOX IMVI melanoma
[57] = tested on: M14 melanoma
[58] = tested on: NCI-H460 lung
[59] = tested on: MDA-N

Measured: TGI

C=C(CCC/C(C)=C/C=C/[C@]1(C)CCCc2ccoc21)CC(=O)O
> 100 µM: [1] | [2] | [3] | [4] | [5] | [6] | [7] | [8] | [9] | [10] | [11] | [12] | [13] | [14] | [15] | [16] | [17] | [18] | [19] | [20] | [21] | [22] | [24] | [25] | [26] | [27] | [28] | [29] | [30] | [31] | [32] | [33] | [34] | [35] | [36] | [37] | [38] | [39] | [40] | [41] | [42] | [43] | [44] | [45] | [46] | [47] | [48] | [49] | [50] | [51] | [52] | [53] | [54] | [55] | [56] | [57] | [58]
98.4 µM: [23]

CN(C(=O)C1=CCC2(CC1)OCCO2)c1ccccc1OS(=O)(=O)C(F)(F)F
> 100 µM: [1] | [2] | [3] | [4] | [5] | [6] | [59] | [9] | [10] | [11] | [12] | [13] | [14] | [16] | [17] | [18] | [20] | [21] | [22] | [23] | [24] | [25] | [28] | [29] | [30] | [31] | [32] | [33] | [34] | [35] | [36] | [37] | [39] | [41] | [43] | [44] | [46] | [47] | [48] | [49] | [51] | [52] | [53] | [54] | [55] | [56] | [57] | [58]
79.5 µM: [50]
85.4 µM: [19]
97.6 µM: [40]

COc1cc(C2SCC(=O)N2c2ccccn2)cc(OC)c1OC (stereo not drawn)
77.6 µM: [4]
> 100 µM: [1] | [2] | [3] | [5] | [7] | [8] | [9] | [10] | [11] | [12] | [13] | [14] | [15] | [16] | [17] | [18] | [19] | [20] | [21] | [22] | [23] | [24] | [25] | [26] | [27] | [28] | [29] | [30] | [31] | [33] | [34] | [35] | [36] | [37] | [38] | [39] | [40] | [41] | [42] | [46] | [47] | [48] | [49] | [51] | [52] | [53] | [54] | [55] | [56] | [57] | [58]
89.2 µM: [43]
41.6 µM: [59]

O=C(C=P(c1ccccc1)(c1ccccc1)c1ccccc1)c1ccc(-c2cccc([N+](=O)[O-])c2)s1
59.6 µM: [30]
27.9 µM: [11]
81.4 µM: [43]
54.9 µM: [13]
81.9 µM: [9]
76.3 µM: [50]
74.2 µM: [29]
> 100 µM: [1] | [2] | [3] | [4] | [5] | [6] | [7] | [59] | [8] | [10] | [12] | [14] | [15] | [16] | [17] | [18] | [21] | [22] | [23] | [24] | [25] | [26] | [27] | [28] | [31] | [33] | [35] | [36] | [37] | [38] | [39] | [40] | [41] | [42] | [44] | [45] | [46] | [47] | [49] | [51] | [52] | [53] | [54] | [55] | [56] | [57] | [58]
55.6 µM: [20]
